A value given as a limit tells only on which side of the number the result lay.

Results on 26 molecules are retold here after US10889553B2, “Asymmetric triazole benzamide derivatives and the compositions and methods of treatment regarding the same” (NysnoBio Ireland DAC, priority 2017, dated 2021).

In one data set the test system is HCT-116 (colon). Kind of data set: Cancer cell proliferation assay (acid phosphatase). The format is cell-based. The following applies: Homo sapiens, HCT-116, 72 h, Table 6A; 72 hrs; read-out: HCT-116 IC50. In a few lines:
(§1)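 Seed 4×10^4 cells/ml, overnight 37° C./5% CO2; add compound (varying conc., triplicate); incubate 72 hrs; wash PBS; acid phosphatase substrate pH 5.5, 2 h; stop NaOH; read 405/620 nm; % inhibition vs DMSO.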

The test system of another data set is A549 (lung). Kind of data set: Cancer cell proliferation assay (acid phosphatase). The following applies: Homo sapiens, A549, 72 h, Table 6A; 72 hrs; read-out: A549 IC50. The format is cell-based. In outline:
as §1

A short description of data set [1]: Microsomal stability assay, rat liver microsomes. The format is in vitro ADME. As to conditions: pH 7.4; rat liver microsomes 1.0 mg/mL, 1 μM compound, NADPH; read-out: RLM t1/2. In outline: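 Compound at 1 μM final (1% DMSO) was incubated with rat or human liver microsomes (1.0 mg/mL) in 50 mM KH2PO4 pH 7.4, started with NADPH. Parent remaining at 0, 15, 30 and 60 min was measured by LC-MS/MS. kobs came from ln(% remaining) versus time, and T1/2=[…]/kobs.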
Background: Microsomes from liver hold many membrane-bound enzymes, among them those of drug oxidation.

For a further data set, the system named is LS-174T (colon). Kind of data set: Cancer cell proliferation assay (acid phosphatase). The data set is classed as cell-based. The following applies: Homo sapiens, LS174T; Table 6A; 72 hrs. In outline: as §1
The next data set relates to Calu-6 (lung). Kind of data set: Cancer cell proliferation assay (acid phosphatase). As to conditions: Homo sapiens, Table 6A, 72 hrs, read-out: Calu6 IC50. The format is cell-based. In outline:
as §1

The nature of data set [2]: Microsomal stability assay, human liver microsomes. The data set is classed as in vitro ADME. As to conditions: pH 7.4; human liver microsomes 1.0 mg/mL, 1 μM compound, NADPH; read-out: HLM t1/2. The protocol:
Compounds were also tested for metabolic stability in both rat liver microsomes (RLM) and the compounds are tested for human liver microsomes (HLM) and their half-life is calculated (See Tables 5A and 5B). The assay was performed as follows. The total volume for each incubation was 250 μL. A 100 μM DMSO solution of compound (diluted from 10 mM stock solution) was spiked into 50 mM KH2PO4 (pH 7.4) buffer containing liver microsome at a concentration of 1.0 mg/mL. The reaction was initiated by the addition of 50 μL of 1 mM NADPH. The final concentration of each compound was 1 μM (1% DMSO). The positive controls, phenacetin for CYP1A2, diclofenac for CYP2C9, omeprazole for CYP2C19, dextromethorphan for CYP2D6 and midazolam for CYP3A4 were added to a separate tube with the final substrate concentrations of 1 μM (1% DMSO) for evaluating the enzyme activities in the liver microsomes. At 0, 15, 30 and 60 min, an aliquot of 15 μL reaction mixtures were removed and 200 μL of methanol (with internal standard of 25 ng/mL propranolol) was added to quench the reaction. The resulting mixture was centrifuged and supernatant was used for LC-MS/MS analysis.
The signals for each compound, or the metabolites for the probe substrates and the internal standard were integrated and the peak area ratios to internal standard were generated. Percent parent remaining at a specified timepoint was calculated based on the peak area ratios at time 0 (as 100%) for in vitro metabolic stability studies in liver microsome and hepatocyte. The observed rate constant (kobs) for the metabolism of substrates was calculated by plotting the natural log of percentage substrate remaining versus time of incubation with the slope being kobs. The half-life (T1/2) was calculated according to the following equation: T1/2=[…]

Regarding `C#Cc1ccc(C(=O)Nc2nc(NC(=O)c3cccc(N=[N+]=[N-])c3)n(-c3ccccc3)n2)cc1` [Compound 2], the half-maximal inhibitory concentration (IC50) in the data set on HCT-116 (colon) amounted to 642 µM; with A549 (lung) it was 2.2 µM. Besides, the half-life at 1 μM in data set [1] was 0.683 h.

As for `Cc1ccccc1C(=O)Nc1nc(NC(=O)c2cccnc2)nn1-c1ccccc1` [Compound 6], in data set [1], the half-life at 1 μM turned out to be 0.0833 h.

With `Cc1ccccc1C(=O)Nc1nc(NC(=O)c2ccno2)n(-c2ccccc2)n1` [Compound 7], the half-life at 1 μM in data set [1] worked out at 3.98 h.

As for `Cc1ccccc1C(=O)Nc1nc(NC(=O)c2ccccn2)nn1-c1ccccc1` [Compound 16], the concentration for half-maximal inhibition (IC50) in the data set with A549 (lung) was determined as 2.6 µM. Further, the half-life at 1 μM in data set [1] was 2.35 h.

In the case of `Cc1ccccc1C(=O)Nc1nc(NC(=O)c2cnccn2)n(-c2ccccc2)n1` [Compound 17], the half-life at 1 μM in data set [1] stood at 0.433 h.

The molecule `Cc1ccccc1C(=O)Nc1nc(NC(=O)C2CCCN2)nn1-c1ccccc1` (centres unmarked) [Compound 20] yielded an IC50 in the data set on LS-174T (colon) above 1 µM. Further, in data set [1], the half-life at 1 μM amounted to 2.45 h.

In the case of `Cc1ccc(C(=O)Nc2nc(NC(=O)c3ccc(C)cc3)n(-c3ccccc3)n2)cc1` [Compound 21], the IC50 in the data set with LS-174T (colon) was above 2.5 µM; in the data set with Calu-6 (lung) it was above 2.5 µM; in the data set with A549 (lung), 2.5 µM. The half-life at 1 μM in data set [1] was 0.1 h.

Regarding `COc1ccccc1C(=O)Nc1nc(NC(=O)c2ccccc2OC)n(-c2ccccc2)n1` [Compound 23], the 50% inhibitory concentration (IC50) with LS-174T (colon), with Calu-6 (lung) and with A549 (lung) was above 2.5 µM throughout. In addition, in data set [1], the half-life at 1 μM was determined as 0.35 h.

As to `Cc1ccccc1C(=O)Nc1nc(NC(=O)c2ccccc2C)n(-c2ccc(F)c(F)c2)n1` [Compound 24], the values for the IC50 in the data set with LS-174T (colon), with Calu-6 (lung) and with A549 (lung) were 0.94 µM, 0.29 µM and 0.28 µM, respectively. Also, the half-life at 1 μM turned out to be 2.18 h in data set [1] and 3.4 h in data set [2].

On to `Cc1ccccc1C(=O)Nc1nc(NC(=O)c2ccccc2C)n(-c2ccc(C(F)(F)F)cc2)n1` [Compound 25], for which the IC50 in the data set with LS-174T (colon) is below 0.2 µM; in the data set on Calu-6 (lung), 0.43 µM; in the data set with HCT-116 (colon) it was 0.12 µM; in the data set on A549 (lung) it was 0.04 µM. Further, the half-life at 1 μM in data set [1] was found to be 6.8 h; in data set [2], 1.18 h.

Turning to `Cc1ccccc1C(=O)Nc1nc(NC(=O)c2ccccc2C)n(-c2ccccc2Cl)n1` [Compound 26], the figures for the concentration for half-maximal inhibition (IC50) in the data set on LS-174T (colon) and in the data set with A549 (lung) were above 1 µM and 2.5 µM, respectively. In addition, the half-life at 1 μM in data set [1] worked out at 0.967 h.

For `Cc1ccc(-n2nc(NC(=O)c3ccccc3C)nc2NC(=O)c2ccccc2C)cc1` [Compound 31], the IC50 in the data set on LS-174T (colon) is above 2.5 µM; in the data set on A549 (lung), 2.5 µM. In addition, the half-life at 1 μM in data set [1] worked out at 0.233 h.

Turning to `Cc1ccccc1C(=O)Nc1nc(NC(=O)c2ccccc2C)n(-c2ccccc2F)n1` [Compound 32], the IC50 in the data set on LS-174T (colon) and with A549 (lung) was above 2.5 µM throughout. In addition, the half-life at 1 μM in data set [1] was 3.4 h.

`O=C(Nc1nc(NC(=O)c2ccncc2)n(-c2ccccc2)n1)c1ccncc1` [Compound 33]: the half-maximal inhibitory concentration (IC50) in the data set with A549 (lung) was above 2.5 µM. Moreover, the half-life at 1 μM in data set [1] was 3.3 h.

Regarding `Cc1ccccc1C(=O)Nc1nc(NC(=O)c2ccncc2)nn1-c1ccccc1` [Compound 34], the values for the IC50 with LS-174T (colon) and with A549 (lung) were 2.6 µM and 2.5 µM, respectively. Moreover, the half-life at 1 μM in data set [1] was 5.5 h.

In the case of `Cc1ccccc1C(=O)Nc1nc(NC(=O)c2ccccc2C)n(-c2ccc(C#N)cc2)n1` [Compound 35], the IC50 in the data set with LS-174T (colon) is 2.3 µM; in the data set on A549 (lung), 2.4 µM. Moreover, the half-life at 1 μM in data set [1] was 3.3 h.

As for `Cc1ccccc1C(=O)Nc1nc(NC(=O)c2ccccc2C)n(-c2cccc(Cl)c2)n1` [Compound 36], the values for the IC50 in the data set on LS-174T (colon), in the data set with Calu-6 (lung) and with A549 (lung) were 1.3 µM, 0.17 µM and 0.22 µM, respectively. Also, the half-life at 1 μM worked out at 1.05 h in data set [1] and 2.45 h in data set [2].

Take `COc1ccc(C(=O)Nc2nc(NC(=O)c3ccc(OC)cc3)n(-c3ccccc3)n2)cc1` [Compound 37]: the results for the IC50 with LS-174T (colon) and in the data set with A549 (lung) were 2.4 µM and 2.3 µM, respectively. The half-life at 1 μM in data set [1] stood at 0.35 h.

As for `Cc1cccc(-n2nc(NC(=O)c3ccccc3C)nc2NC(=O)c2ccccc2C)c1` [Compound 38], the concentration for half-maximal inhibition (IC50) with LS-174T (colon) is 2.3 µM; in the data set with Calu-6 (lung) it was 2.6 µM; with A549 (lung), 2.1 µM. The half-life at 1 μM in data set [1] came out at 0.433 h.

For the molecule `Cc1ccccc1C(=O)Nc1nc(NC(=O)c2ccccc2C)n(-c2cccc(F)c2)n1` [Compound 39], the IC50 is 2.1 µM in the data set on LS-174T (colon), 2.5 µM with Calu-6 (lung) and 1.2 µM with A549 (lung). In addition, in data set [1], the half-life at 1 μM was determined as 2.22 h.

In the case of `O=C(Nc1nc(NC(=O)c2cccnc2)n(-c2ccccc2)n1)c1cccnc1` [Compound 40], the half-maximal inhibitory concentration (IC50) in the data set with LS-174T (colon) is above 2.5 µM. The half-life at 1 μM in data set [1] was above 8.33 h.

As for `O=C(Nc1nc(NC(=O)c2ccccn2)n(-c2ccccc2)n1)c1ccccn1` [Compound 41], the IC50 in the data set with LS-174T (colon) and in the data set with A549 (lung) was 2.5 µM each time. For the same molecule, the half-life at 1 μM in data set [1] turned out to be 0.283 h.

With `Cc1ccccc1C(=O)Nc1nc(NC(=O)c2ccccc2C)n(-c2ccc(N3CCCCC3)cc2)n1` [Compound 44], the half-maximal inhibitory concentration (IC50) in the data set with LS-174T (colon) was 2.5 µM; in the data set with Calu-6 (lung), above 2.5 µM; with A549 (lung), 2 µM. Moreover, the half-life at 1 μM in data set [1] was determined as 0.1 h.

For the molecule `Cc1ccccc1C(=O)Nc1nc(NC(=O)c2ccccc2C)n(-c2ccc(F)cc2F)n1` [Compound 46], the concentration for half-maximal inhibition (IC50) in the data set with LS-174T (colon) and with A549 (lung) was 2.5 µM throughout. In addition, the half-life at 1 μM in data set [1] is 1.62 h.

Consider `Cc1ccccc1C(=O)Nc1nc(NCc2ccccc2)nn1-c1ccc(C(F)(F)F)cc1` [Compound 102], for which the figures for the IC50 in the data set on HCT-116 (colon) and in the data set with A549 (lung) were 2.5 µM and above 2.5 µM, respectively. Also, the half-life at 1 μM in data set [1] is 0.167 h.

As to `Cc1ccnc(-c2nc(NC(=O)c3ccccc3C)n(-c3ccccc3)n2)c1` [Compound 124], the half-inhibitory concentration (IC50) with Calu-6 (lung) is 1.4 µM; in the data set with A549 (lung) it was 1.2 µM. In addition, the half-life at 1 μM in data set [1] worked out at 0.717 h.

As usually defined, the IC50 is the midpoint of a concentration-inhibition curve.
